Experimental findings from ChEMBL document CHEMBL3351970 (Bioorg Med Chem Lett, 2014) are described below.

Broadly, the Ki is the dissociation constant of the complex between target and ligand, obtained from inhibition or displacement. A word on the inhibition in vivo: it is the drop in the measured response relative to a control, in per cent. What is called ED50 is the dose at which the effect has come halfway, by size or by number of responders.

For test [1], the target named is T1, Transient receptor potential cation channel subfamily V member 1 (Homo sapiens, UniProt Q8NER1). Briefly: Antagonist activity against human TRPV1 expressed in CHO cells assessed as inhibition of capsaicin-induced channel activation by FLIPR assay. The test is classed as cell-based.
T1 sequence (Q8NER1 whole entry): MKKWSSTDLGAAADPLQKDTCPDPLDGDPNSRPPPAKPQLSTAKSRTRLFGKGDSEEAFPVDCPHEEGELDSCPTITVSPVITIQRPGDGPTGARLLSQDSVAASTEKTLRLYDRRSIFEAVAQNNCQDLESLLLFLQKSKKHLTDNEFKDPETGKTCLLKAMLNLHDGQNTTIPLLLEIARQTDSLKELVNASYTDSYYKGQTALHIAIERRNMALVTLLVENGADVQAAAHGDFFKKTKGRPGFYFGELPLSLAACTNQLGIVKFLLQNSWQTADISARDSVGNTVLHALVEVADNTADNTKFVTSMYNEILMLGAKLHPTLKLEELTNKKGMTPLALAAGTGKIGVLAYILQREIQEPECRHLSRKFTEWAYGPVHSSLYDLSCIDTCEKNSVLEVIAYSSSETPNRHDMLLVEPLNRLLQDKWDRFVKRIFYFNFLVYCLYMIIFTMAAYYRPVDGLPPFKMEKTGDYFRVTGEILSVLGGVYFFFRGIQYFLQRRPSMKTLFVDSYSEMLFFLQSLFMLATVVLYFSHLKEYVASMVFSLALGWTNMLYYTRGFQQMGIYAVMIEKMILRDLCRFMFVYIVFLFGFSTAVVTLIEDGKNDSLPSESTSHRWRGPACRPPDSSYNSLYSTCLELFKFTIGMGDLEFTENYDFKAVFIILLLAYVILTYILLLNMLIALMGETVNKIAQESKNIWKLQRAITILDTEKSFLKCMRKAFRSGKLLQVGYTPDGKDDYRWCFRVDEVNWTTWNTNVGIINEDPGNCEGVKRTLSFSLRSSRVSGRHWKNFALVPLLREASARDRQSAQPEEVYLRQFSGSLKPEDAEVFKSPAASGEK
The test system of test [2] is Mus musculus. Briefly: Anti-allodynic activity in mouse model of chronic constriction injury-induced neuropathic pain assessed as inhibition of pain response at 0.0001 mg/kg, po. The test is classed as functional.
Test [3] addresses T1, Transient receptor potential cation channel subfamily V member 1. Briefly: Antagonist activity against human TRPV1 expressed in CHO cells assessed as inhibition of pH-induced channel activation by FLIPR assay. The test is classed as cell-based.
Test [4] has as its system Mus musculus. Briefly: Inhibition of capsaicin-induced hypothermia in mouse at 0.3 mg/kg, po administered 15 mins before capsaicin challenge and measured 30 mins post capsaicin injection. Type of test: functional.
Test [5] deals with Mus musculus. The test can be described thus: Anti-allodynic activity in mouse model of chronic constriction injury-induced neuropathic pain assessed as inhibition of pain response at 0.1 mg/kg, po. Type of test: functional.
Test [6] relates to Mus musculus. The test can be described thus: Anti-allodynic activity in mouse model of chronic constriction injury-induced neuropathic pain assessed as inhibition of pain response at 0.001 mg/kg, po. Type of test: functional.
In test [7] the test system is Mus musculus. The test can be described thus: Anti-allodynic activity in orally dosed mouse model of chronic constriction injury-induced neuropathic pain assessed as inhibition of pain response. The test is classed as functional. The conditions noted are these: po.
In test [8] the target is T1, Transient receptor potential cation channel subfamily V member 1. The test can be described thus: Antagonist activity against human TRPV1 expressed in CHO cells assessed as inhibition of 45 degC heat-induced channel activation by FLIPR assay. The test is classed as cell-based.
The subject of test [9] is Mus musculus. Briefly: Inhibition of capsaicin-induced hypothermia in mouse administered orally 15 mins before capsaicin challenge and measured 30 mins post capsaicin injection. The test is classed as functional, organism-based.
For test [10], the system named is Mus musculus. Briefly: Inhibition of capsaicin-induced hypothermia in mouse at 0.1 mg/kg, po administered 15 mins before capsaicin challenge and measured 30 mins post capsaicin injection. Type of test: functional.
In test [11] the target is T1, Transient receptor potential cation channel subfamily V member 1. The test can be described thus: Antagonist activity against human TRPV1 expressed in CHO cells assessed as inhibition of NADA-induced channel activation by FLIPR assay. The test is classed as cell-based.
Test [12] has as its system Mus musculus. The test can be described thus: Inhibition of capsaicin-induced hypothermia in mouse at 1 mg/kg, po administered 15 mins before capsaicin challenge and measured 30 mins post capsaicin injection. Type of test: functional.
In test [13] the test system is Mus musculus. Briefly: Anti-allodynic activity in mouse model of chronic constriction injury-induced neuropathic pain assessed as inhibition of pain response at 0.01 mg/kg, po. The test is classed as functional.
Test [14] deals with Mus musculus. The test can be described thus: Inhibition of capsaicin-induced hypothermia in mouse at 10 mg/kg, po administered 15 mins before capsaicin challenge and measured 30 mins post capsaicin injection. The test is classed as functional.

As for `CC(C(=O)NCc1ccc(C(F)(F)F)nc1Cc1ccccc1)c1ccc(NS(C)(=O)=O)c(F)c1` (stereo unspecified), in test [1], the Ki worked out at 141 nM.

With `CC(C(=O)NCc1ccc(C(F)(F)F)nc1-c1ccc(F)cc1)c1ccc(NS(C)(=O)=O)c(F)c1` (stereo unspecified), the MPE is given as 21.9% in the test with Mus musculus [2], 47.1% with Mus musculus [5], 30.5% in the test on Mus musculus [6] and 52.9% in the test on Mus musculus [13]. Also, the Ki in test [3] was determined as 131 nM; in test [8] it was 25.9 nM; in [11], 0.84 nM. This compound also yielded an inhibition in vivo at 0.3 mg/kg in the test with Mus musculus [4] of 38%. Moreover, in the test on Mus musculus [7], the ED50 is 0.01 mg/kg. The inhibition result in the test on Mus musculus [9] was “Dose-dependent effect”. This compound also came in with an inhibition in vivo at 0.1 mg/kg in the test on Mus musculus [10] of 25%. In the test with Mus musculus [12], this compound came in with an inhibition in vivo at 1 mg/kg of 60%. This compound came in with an inhibition in vivo at 10 mg/kg with Mus musculus [14] of 91%.

Regarding `COc1cc(OC)cc(-c2nc(C(F)(F)F)ccc2CNC(=O)C(C)c2ccc(NS(C)(=O)=O)c(F)c2)c1` (stereo unspecified), in [1], the Ki is 58 nM.

As to `CC(C(=O)NCc1ccc(C(F)(F)F)nc1-c1ccco1)c1ccc(NS(C)(=O)=O)c(F)c1` (stereo unspecified), in test [1], the Ki was 5.8 nM.

Turning to `CC(C(=O)NCc1ccc(C(F)(F)F)nc1-c1cc2ccccc2s1)c1ccc(NS(C)(=O)=O)c(F)c1` (stereo unspecified), the Ki in test [1] stood at 1 nM.

Take `CC(C(=O)NCc1ccc(C(F)(F)F)nc1-n1ccnc1)c1ccc(NS(C)(=O)=O)c(F)c1` (stereo unspecified): the Ki in test [1] was determined as 36.1 nM.

Regarding `CC(C(=O)NCc1ccc(C(F)(F)F)nc1/C=C/c1ccccc1)c1ccc(NS(C)(=O)=O)c(F)c1` (stereo unspecified), the Ki in [1] came to 2.2 nM.

For `CC(C(=O)NCc1ccc(C(F)(F)F)nc1-c1ccoc1)c1ccc(NS(C)(=O)=O)c(F)c1` (stereo unspecified), the Ki in [1] was determined as 1.4 nM.

For the compound `CC(C(=O)NCc1ccc(C(F)(F)F)nc1-c1ccsc1)c1ccc(NS(C)(=O)=O)c(F)c1` (stereo unspecified), the Ki in test [1] was determined as 2 nM.
